Patent publication US11548894B2, “Benzamide or benzamine compounds useful as anticancer agents for the treatment of human cancers” (The Board of Regents of the University of Texas System, priority 2015, dated 2023)
Structures can show the parent of a compound that is named as a salt. Where two headings read alike, the source gives them in different places.

Tested on: Mut6 cells (TD-NSC)
Assay: luminescence-based Celltiter-Glo cell viability assay (ATP levels) on Mut6 tumor derived neuronal stem cells
Set-up: species or system mouse
Details: ATP activity as measure of viability, 96 hours, read-out: EC50 (TD-NSC)
Source text: A mouse colony with 100% incidence of GBM and with conditional knockout of p53, pTEN and NF1 genes (Mut6; glioblastoma) was used to isolate primary neuronal stem cells from GBM tumors cultured in 5% Oxygen and in serum free media with defined growth factors. Primary cells from multiple tumors were pooled for high throughput screening with controls against the University of Texas Southwestern (UTSW) compound file, which encompasses ˜200,000 synthetic compounds that represent a large chemical space from several commercial vendors, including 1200 marketed drugs from the Prestwick Chemical Library®, and 600 compounds that went to pre-clinical tests from the NIH library.
A luminescence-based Celltiter-Glo® assay was performed to measure cell viability, using ATP levels as the readout. In brief, opaque-walled multiwell plates with Mut6 cells in culture medium (25 μl per well, 384-well plates) were prepared. Control wells containing medium without cells were prepared to obtain a value for background luminescence. Test compounds were added to experimental wells, and incubated according to culture protocol. The plate and its contents were incubated at 37° C., 5% […] for 96 hours. An ATP standard curve was generated immediately prior to adding the CellTiter-Glo® Reagent. A volume of CellTiter-Glo® Reagent equal to the volume of cell culture medium present in each well (25 μl of reagent to 25 μl of medium containing cells for a 384-well plate) was added. The contents were mixed for 2 minutes on an orbital shaker to induce cell lysis. The plate was allowed to incubate at room temperature for 10 minutes to stabilize the luminescent signal and luminescence recorded. (e.g. GloMax®, Lumistar, SPECTROstar, PHERAstar FS).
Compound 4C12 served as initial lead compound for analog development and for additional studies. […] See Wager, T T et al, “Moving beyond rules: the development of a central nervous system multi-parameter-optimization (CNS MPO) approach to enable alignment of drug-like properties,” ACS Chem. Neurosci. 1(6): 435-49 (2010). IC50 curves for the analog compounds plotted as ATP activity (y axis, a measure of viability) vs. concentration (nM) (x-axis) are shown in FIG. 9.

Row | Structure (SMILES) | EC50 (Mus musculus, 96 h) [nM] | also measured
1 | CCN1CCCC1CNC(=O)c1ccc(Sc2ccc(N)cc2)c([N+](=O)[O-])c1 (stereo not drawn) [DS-1-177, 4-((4-aminophenyl)thio)-N-((1-ethylpyrrolidin-2-yl)methyl)-3-nitrobenzamide] | 340 | –
2 | CCN1CCCC1CNC(=O)c1ccc(Sc2ccc(C(=O)O)cc2)c([N+](=O)[O-])c1 (stereo not drawn) [DS-1-179, 4-((4-(((1-ethylpyrrolidin-2-yl)methyl)carbamoyl)-2-nitrophenyl)thio)benzoic Acid Hydrochloride] | > 1000 | –
3 | CCN1CCCC1CNC(=O)c1ccc(Nc2ccc(F)cc2)c([N+](=O)[O-])c1 (stereo not drawn) [DS-1-105, N-((1-ethylpyrrolidin-2-yl)methyl)-4-((4-fluorophenyl)amino)-3-nitrobenzamide] | 255 | –
4 | CCN1CCCC1CNC(=O)c1ccc([S+]([O-])c2ccc(F)cc2)c([N+](=O)[O-])c1 (stereo not drawn) [DS-1-135, N-((1-ethylpyrrolidin-2-yl)methyl)-4-((4-fluorophenyl)sulfinyl)-3-nitrobenzamide] | > 1000 | –
5 | O=C(NCc1ccccn1)c1ccc(Sc2ccc(F)cc2)c([N+](=O)[O-])c1 [DS-1-023, 4-((4-fluorophenyl)thio)-3-nitro-N-(pyridin-2-ylmethyl)benzamide] | > 1000 | –
6 | CC[N+]1(C)CCCC1CNC(=O)c1ccc(Sc2ccc(F)cc2)c([N+](=O)[O-])c1 (stereo not drawn) [DS-1-119, 1-ethyl-2-((4-((4-fluorophenyl)thio)-3-nitrobenzamido)methyl)-1-methylpyrrolidin-1-ium Iodide] | > 1000 | –
7 | O=C(NCCN1CCOCC1)c1ccc(Sc2ccc(F)cc2)c([N+](=O)[O-])c1 [DS-1-089, 4-((4-fluorophenyl)thio)-N-(2-morpholinoethyl)-3-nitrobenzamide] | 25 | –
8 | CCN1CCCC1CNC(=O)c1ccc(Sc2ccc([N+](=O)[O-])cc2)c([N+](=O)[O-])c1 (stereo not drawn) [DS-1-137, N-((1-ethylpyrrolidin-2-yl)methyl)-3-nitro-4-((4-nitrophenyl)thio)benzamide] | – | EC50 (Mus musculus): 69 nM
9 | CCN1CCCC1CNC(=O)c1ccc(Sc2ccc(F)cc2)nc1 (stereo not drawn) [DS-1-209, N-((1-ethylpyrrolidin-2-yl)methyl)-6-((4-fluorophenyl)thio)nicotinamide] | > 1000 | –
10 | CCN1CCCC1CNC(=O)c1ccc(Sc2ccc(C(F)(F)F)cc2)c([N+](=O)[O-])c1 (stereo not drawn) [DS-1-065, N-((1-ethylpyrrolidin-2-yl)methyl)-3-nitro-4-((4-(trifluoromethyl)phenyl)thio)benzamide] | 86 | –
11 | CCN1CCCC1CNC(=O)c1ccc(Sc2ccc(F)cc2)c(N)c1 (stereo not drawn) [DS-1-225, 3-amino-N-((1-ethylpyrrolidin-2-yl)methyl)-4-((4-fluorophenyl)thio)benzamide] | 192 | –
12 | CCN1CCCC1CNC(=O)c1ccc(Sc2ccc(Cl)c(Cl)c2)c([N+](=O)[O-])c1 (stereo not drawn) [DS-1-291, 4-((3,4-dichlorophenyl)thio)-N-((1-ethylpyrrolidin-2-yl)methyl)-3-nitrobenzamide] | 93 | –
13 | CCN1CCCC1CNC(=O)c1ccc(Sc2ccc(C)cc2)c([N+](=O)[O-])c1 (stereo not drawn) [DS-1-271, N-((1-ethylpyrrolidin-2-yl)methyl)-3-nitro-4-(p-tolylthio)benzamide] | 55 | –
14 | CN(CCNC(=O)CCCC[C@@H]1SC[C@@H]2NC(=O)N[C@@H]21)CCNC(=O)c1ccc(Sc2ccc(F)cc2)c([N+](=O)[O-])c1 [DS-1-205] | 40000 | –
15 | C#CCOc1ccc(Sc2ccc(C(=O)NCC3CCCN3CC)cc2[N+](=O)[O-])cc1 (stereo not drawn) [DS-1-261, N-((1-ethylpyrrolidin-2-yl)methyl)-3-nitro-4-((4-(prop-2-yn-1-yloxy)phenyl)thio)benzamide] | 269 | –
16 | CCN1CCCC1CNC(=O)c1ccc(Sc2ccc(C)c(C)c2)c([N+](=O)[O-])c1 (stereo not drawn) [DS-1-299, 4-((3,4-dimethylphenyl)thio)-N-((1-ethylpyrrolidin-2-yl)methyl)-3-nitrobenzamide] | 169 | –
17 | CCN(CC)CCNC(=O)c1ccc(Sc2ccc(F)cc2)c([N+](=O)[O-])c1 [DS-1-239, N-(2-(diethylamino)ethyl)-4-((4-fluorophenyl)thio)-3-nitrobenzamide Hydrochloride] | – | EC50 (Hydrochloride): 59 nM
18 | CCN1CCCC1CNC(=O)c1ccc(NS(=O)(=O)c2ccc(F)cc2)c([N+](=O)[O-])c1 (stereo not drawn) [DS-1-213, N-((1-ethylpyrrolidin-2-yl)methyl)-4-(4-fluorophenylsulfonamido)-3-nitrobenzamide] | > 1000 | –
19 | CCN1CCCC1CNC(=O)c1ccc(Sc2ccc(NC(C)=O)cc2)c([N+](=O)[O-])c1 (stereo not drawn) [DS-1-077, 4-((4-acetamidophenyl)thio)-N-((1-ethylpyrrolidin-2-yl)methyl)-3-nitrobenzamide] | > 1000 | –
20 | CCN1CCCC1CNC(=O)c1ccc(Sc2ccccn2)c([N+](=O)[O-])c1 (stereo not drawn) [DS-1-071, N-((1-ethylpyrrolidin-2-yl)methyl)-3-nitro-4-(pyridin-2-ylthio)benzamide] | 419 | –
21 | CCN1CCCC1CNC(=O)c1ccc(Sc2ccc(F)cc2)cc1 (stereo not drawn) [DS-1-117, N-((1-ethylpyrrolidin-2-yl)methyl)-4-((4-fluorophenyl)thio)benzamide] | 394 | –
22 | CCN1CCCC1COC(=O)c1ccc(Sc2ccc(F)cc2)c([N+](=O)[O-])c1 (stereo not drawn) [DS-1-287, (1-ethylpyrrolidin-2-yl)methyl 4-((4-fluorophenyl)thio)-3-nitrobenzoate] | > 1000 | –

More lines, main results first:

Row | EC50 (Mus musculus, 96 h) [nM] | Structure (SMILES) | also measured
23 | 154 | CCN1CCCC1CNC(=O)c1ccc(Sc2ccccc2CO)c([N+](=O)[O-])c1 (stereo not drawn) [JCH-149, N-((1-ethylpyrrolidin-2-yl)methyl)-4-((2-(hydroxymethyl)phenyl)thio)-3-nitrobenzamide] | –
24 | > 1000 | CCN1CCCC1CNC(=O)c1ccc(OCc2ccc(C3(C(F)(F)F)N=N3)cc2)c([N+](=O)[O-])c1 (stereo not drawn) [ww3-13] | –
25 | 531 | C#CCN(CC1CCCN1CC)C(=O)c1ccc(Sc2ccc(F)cc2)c([N+](=O)[O-])c1 (stereo not drawn) [ww2-292, N-((1-ethylpyrrolidin-2-yl)methyl)-4-((4-fluorophenyl)thio)-3-nitro-N-(prop-2-yn-1-yl)benzamide] | –
26 | 15 | CCN1CCCC1CN(C)C(=O)c1ccc(Sc2ccc(F)cc2)c([N+](=O)[O-])c1 (stereo not drawn) [DS-2-061, N-((1-ethylpyrrolidin-2-yl)methyl)-4-((4-fluorophenyl)thio)-N-methyl-3-nitrobenzamide] | –
27 | 564 | CCN1CCCC1CNC(=O)c1ccc(C(O)c2ccc(F)cc2)c([N+](=O)[O-])c1 (stereo not drawn) [DS-2-051, N-((1-ethylpyrrolidin-2-yl)methyl)-4-((4-fluorophenyl)(hydroxy)methyl)-3-nitrobenzamide] | –
28 | > 1000 | C#CCN(CC)CCNC(=O)c1ccc(C(=O)c2ccc(F)cc2)c([N+](=O)[O-])c1 [DS-2-107, N-(2-(ethyl(prop-2-yn-1-yl)amino)ethyl)-4-(4-fluorobenzoyl)-3-nitrobenzamide] | –
29 | 510 | CCN1CCCC1CNC(=O)c1ccc(Sc2cc(Cl)cc(Cl)c2)c([N+](=O)[O-])c1 (stereo not drawn) [JCH-124, 4-((3,5-dichlorophenyl)thio)-N-((1-ethylpyrrolidin-2-yl)methyl)-3-nitrobenzamide] | –
30 | 50 | O=C(NCCN1CCCCC1)c1ccc(Sc2ccc(F)cc2)c([N+](=O)[O-])c1 [DS-2-125, 4-((4-fluorophenyl)thio)-3-nitro-N-(2-(piperidin-1-yl)ethyl)benzamide] | –
31 | > 1000 | C#CCOc1ccc(Sc2ccc(C(=O)NCCN(CC)Cc3ccc(C(=O)c4ccccc4)cc3)cc2[N+](=O)[O-])cc1 [DS-2-093, N-(2-((4-benzoylbenzyl)(ethyl)amino)ethyl)-3-nitro-4-((4-(prop-2-yn-1-yloxy)phenyl)thio)benzamide] | –
32 | 86 | CCN1CCCC1CNC(=O)c1ccc(Sc2cccc(C)c2)c([N+](=O)[O-])c1 (stereo not drawn) [DS-1-305, N-((1-ethylpyrrolidin-2-yl)methyl)-3-nitro-4-(m-tolylthio)benzamide] | –
33 | > 1000 | C#CCN(CC)CCNC(=O)c1ccc(Oc2ccc(C(=O)c3ccccc3)cc2)c([N+](=O)[O-])c1 [DS-2-097, 4-(4-benzoylphenoxy)-N-(2-(ethyl(prop-2-yn-1-yl)amino)ethyl)-3-nitrobenzamide] | –
34 | 68 | CCN1CCCC1CNC(=O)c1ccc(Sc2ccc(Cl)cc2Cl)c([N+](=O)[O-])c1 (stereo not drawn) [JCH-120, 4-((2,4-dichlorophenyl)thio)-N-((1-ethylpyrrolidin-2-yl)methyl)-3-nitrobenzamide] | –
35 | 119 | CCN1CCCC1CNC(=O)c1ccc(Sc2ccccc2OC)c([N+](=O)[O-])c1 (stereo not drawn) [JCH-117, N-((1-ethylpyrrolidin-2-yl)methyl)-4-((2-methoxyphenyl)thio)-3-nitrobenzamide] | –
36 | 78 | CCN1CCCC1CNC(=O)c1ccc(Sc2ccccc2C)c([N+](=O)[O-])c1 (stereo not drawn) [JCH-114, N-((1-ethylpyrrolidin-2-yl)methyl)-3-nitro-4-(o-tolylthio)benzamide] | –
